# Results taken from patent US20030180723A1, “Cloning of novel gene sequences expressed and repressed during winter dormancy in the apical buds of tea ( Camellia sinensis L. (O.) Kuntze) bush” (priority 2001, published 2003).
# Test system: dormant apical buds of tea bush
# Experiment: Forced break of bud dormancy by GA3 on a winter-dormant tea bush
# Type: in vivo, Camellia sinensis L. (O.) Kuntze
# Conditions: out of 20 buds; 5 μM in 5% ethanol, applied onto each dormant bud with a paint brush at least 4 times on the same day, December; bud length and perimeter as indicator of growth
# Procedure: Above Example 6 identified 4 differentially expressed genes cloned by us. To further correlate these differentially expressed genes with the phenomenon of dormancy, the dormant bush during winter month was forced to break bud dormancy using a plant growth regulator gibberrellic acid (hereinafter referred to GA3). GA3 was dissolved in 5% ethanol to yield a final concetration of 5 μM. The solution was applied onto each dormant bud with the help of a paint brush at least 4 times on the same day during the month of December. Bud length and its perimeter was recorded regularly as an indicator of its growth. […] These were termed as forced ND apical buds. These were collected and stored as mentioned in Example 1 and used for the purpose of RNA isolation to be used in northern analysis.
smiles,measurement,value
"C=C1C[C@]23C[C@@]1(O)CC[C@H]2[C@@]12C=C[C@H](O)[C@@](C)(C(=O)O1)[C@H]2[C@@H]3C(=O)O [GA3, gibberrellic acid]",buds that showed increase in growth (dormancy break),10 buds
